This note sets out measurements from ChEMBL document CHEMBL1201862, “PubChem BioAssay data set” (2004).

Test [1] is described as follows: inhibitors of non-replicating M. tuberculosis, dose response, luciferase, dry powder (AID 651620). It is filed as functional. Particulars: Mycobacterium tuberculosis.
Test [2] can be described thus: inhibitors of non-replicating M. tuberculosis, dose response, luciferase, dry powder (AID 651619). It is filed as functional. To be noted: Mycobacterium tuberculosis.
The nature of test [3]: growth inhibition of replicating M. tuberculosis, dose response, counter-screen, dry powder, IC90 (AID 651617). It is filed as functional. Particulars: Mycobacterium tuberculosis. (The purpose of a counterscreen is to sort out artefacts and off-target activity.)
The target of test [4] is COUP transcription factor 2 (Homo sapiens, UniProt P24468). Description: Luminescence-based cell-based high throughput dose response assay to identify inhibitors of COUP-TFII (NR2F2). It is filed as functional.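 Note: HEK293 cells transiently cotransfected with COUP-TFII expression vector and reporter; luciferase reporter luminescence driven by COUP-TFII from the pX2-168 reporter plasmid.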
Test [5] can be described thus: non-specific 3'UTR reporter inhibition in Clone20-Shn3RL – cell-based, Renilla luciferase, cherry-picked, counter-screen for Shn3 inhibitor project, dose response (AID 624133). It is filed as functional.
The nature of test [6]: loss of viability in HepG2 cells – cell-based, CellTiter-Glo, cherry-picked, cytotoxicity control for Shn3 inhibitor project, dose response (AID 624134). It is filed as functional.
Test [7] in a line: reduction of Shn3 3'UTR-driven luciferase in osteoblasts – cell-based, Clone20 osteoblasts, firefly luciferase, cherry-picked, dose response (AID 624132).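 Note: firefly luciferase luminescence from reporter carrying the Shn3 3'UTR in osteoblasts.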 It is filed as functional.
The subject of test [8] is INS1. Description: INS-1E survival protection against cytokine death – cell-based, luminescence, retest, dose response (AID 449756).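 Note: cell death triggered by IL-1 beta plus TNF-alpha plus IFN-gamma mixture; protective hits raise ATP signal compared with cytokine alone wells.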 It is filed as functional. To be noted: Rattus norvegicus.
For test [9], the target named is Protein Wnt-3a (Mus musculus, UniProt P27467). Kind of test: antagonism of Wnt3a pathway luciferase reporter – Wnt-LIGHT cells, luminescence, selectivity assay for Gli-SUFU antagonist project, dose response (AID 651570).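 Note: Wnt-LIGHT reporter cells stimulated with conditioned medium from Wnt3a-producing cells.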 It is filed as functional. Particulars: read-out: IC50_Mean. (A reporter such as luciferase makes a cellular process visible.)
The nature of test [10]: viability loss in A549 lung cells – cell-based, 24 h, CellTiter-Glo luminescence, cherry-picks, cytotoxicity control, dose response (AID 1053115). It is filed as functional. To be noted: A549, 24 h. In general terms: In ATP-based viability assays light output follows the ATP content of the culture.
Test [11] has as its target NAD-dependent protein deacylase sirtuin-5, mitochondrial (Homo sapiens, UniProt Q9NXA8). Kind of test: sirtuin-5 deacylation blockers, concentration series – biochemical, fluorescence imaging, cherry-pick, set 5, dose response (AID 720591).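 Note: desuccinylation of succinyl peptide AMC substrate read as fluorescence after trypsin release; potency of inhibitors that lower fluorescence and may act on trypsin instead.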
Test [12] addresses T1, Fibrinogen beta chain (Homo sapiens, UniProt P02675). Kind of test: Fluorescence polarization-based biochemical high throughput dose response assay to identify inhibitors that disrupt the binding of a cyclic peptide (Tn7) to the fibrin proteolytic product D-Dimer and fragment E complex [DD(E )].
The target of test [13] is T1, Fibrinogen beta chain. Kind of test: Fluorescence polarization-based biochemical high throughput dose response assay to identify inhibitors that disrupt the binding of a cyclic peptide (Tn6) to the fibrin proteolytic product D-Dimer and fragment E complex [DD(E )].

Calls of active or inactive are those of the source.

T1 sequence (P02675 whole entry, the tested form may be a part): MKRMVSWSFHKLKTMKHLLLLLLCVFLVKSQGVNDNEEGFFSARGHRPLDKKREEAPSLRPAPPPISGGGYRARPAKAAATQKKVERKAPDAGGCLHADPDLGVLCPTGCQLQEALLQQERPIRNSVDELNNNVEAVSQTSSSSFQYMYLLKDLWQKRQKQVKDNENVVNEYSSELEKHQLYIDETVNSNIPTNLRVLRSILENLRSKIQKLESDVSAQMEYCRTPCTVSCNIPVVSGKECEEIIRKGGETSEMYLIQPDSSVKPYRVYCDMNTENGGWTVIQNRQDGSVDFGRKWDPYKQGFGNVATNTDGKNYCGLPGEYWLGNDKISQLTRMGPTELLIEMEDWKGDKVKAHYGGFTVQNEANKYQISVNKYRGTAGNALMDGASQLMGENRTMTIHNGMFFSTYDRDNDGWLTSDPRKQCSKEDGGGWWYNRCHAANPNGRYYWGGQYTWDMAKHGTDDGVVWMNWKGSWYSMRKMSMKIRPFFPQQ
Sequence of Protein Wnt-3a (P27467 whole entry): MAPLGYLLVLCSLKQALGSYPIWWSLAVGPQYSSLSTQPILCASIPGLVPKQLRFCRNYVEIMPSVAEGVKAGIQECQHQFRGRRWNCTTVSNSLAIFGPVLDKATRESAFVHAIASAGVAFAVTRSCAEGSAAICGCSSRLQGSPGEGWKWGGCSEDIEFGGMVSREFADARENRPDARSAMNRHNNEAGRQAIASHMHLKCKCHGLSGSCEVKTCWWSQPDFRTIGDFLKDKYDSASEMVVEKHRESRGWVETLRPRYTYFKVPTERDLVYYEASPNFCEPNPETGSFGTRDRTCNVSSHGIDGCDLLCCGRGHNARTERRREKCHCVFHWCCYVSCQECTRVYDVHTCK
Sequence of NAD-dependent protein deacylase sirtuin-5, mitochondrial (Q9NXA8 whole entry, the tested form may be a part): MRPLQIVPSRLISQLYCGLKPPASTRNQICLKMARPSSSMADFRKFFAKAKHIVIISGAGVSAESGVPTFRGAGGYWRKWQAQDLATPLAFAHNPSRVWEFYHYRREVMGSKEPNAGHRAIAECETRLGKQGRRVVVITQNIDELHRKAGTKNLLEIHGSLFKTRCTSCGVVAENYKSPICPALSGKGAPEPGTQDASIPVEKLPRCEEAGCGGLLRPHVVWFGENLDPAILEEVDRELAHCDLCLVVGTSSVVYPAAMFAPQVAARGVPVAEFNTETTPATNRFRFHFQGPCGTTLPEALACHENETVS
Sequence of COUP transcription factor 2 (P24468 whole entry): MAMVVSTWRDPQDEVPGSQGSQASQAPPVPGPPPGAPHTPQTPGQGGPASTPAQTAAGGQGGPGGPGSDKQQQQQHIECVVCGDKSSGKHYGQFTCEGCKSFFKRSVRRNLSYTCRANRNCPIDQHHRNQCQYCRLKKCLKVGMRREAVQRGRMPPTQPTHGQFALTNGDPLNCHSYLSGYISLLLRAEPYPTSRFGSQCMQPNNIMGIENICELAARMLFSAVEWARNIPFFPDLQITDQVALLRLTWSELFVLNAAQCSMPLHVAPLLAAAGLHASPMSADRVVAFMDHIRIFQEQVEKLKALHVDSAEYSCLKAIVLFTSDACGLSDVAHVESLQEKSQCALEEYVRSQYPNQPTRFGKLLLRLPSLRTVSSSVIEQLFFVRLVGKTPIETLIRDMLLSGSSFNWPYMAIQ

Consider `Fc1ccc(-c2nnc(SCc3ccccn3)o2)cc1`, for which the concentration for an effect of 90% (IC90) (in general, the concentration needed for an effect of 90%) in [1] is 4 µM (active); in test [2], 4 µM (active); in test [3] it was 62 µM (active).
For the compound `O=C(c1cc(COc2cccc3cnccc23)on1)N1CCCC(CCCO)C1` (stereo not drawn), the results for the IC50 in test [4] and in test [9] were 2.58 µM (active) and 0.338 µM (active), respectively. The half-maximal activity concentration (AC50) (commonly the concentration giving half of the maximal activity seen) was 1.14 µM (active) in [5], 1.98 µM (active) in [6], 0.519 µM (active) in test [7] and 1.41 µM (active) in test [8].
In the case of `O=C(Nc1ccc2c(c1)[C@@H]1C[C@@H](CC(=O)N3CCc4ccccc4C3)O[C@@H](CO)[C@@H]1O2)Nc1ccccc1F`, the AC50 in [10] was > 60 µM (inactive).
Take `O=C(NC(c1ccc(Cl)cc1)c1cnccn1)C1CCN(Cc2ccc(Cl)cc2)CC1` (stereo not drawn): the AC50 in test [11] was > 30 µM (inactive).
`Cc1cc2c(cc1S(=O)(=O)N1CCN(c3cccc(C)c3C)CC1)OCCN2C`: the IC50 is > 83.3 µM (inactive) in [12] and 10.1 µM (inactive) in [13].
